Structures are written as SMILES.

This test has as its target T1, Tyrosinase.
T1 construct: gene PPO3
The test can be described thus: tyrosinase inhibition assay, details only by reference. It counts as biochemical. Conditions: substrate and pH not given. The text has this: tyrosinase inhibition assay, details only by reference on Tyrosinase

The molecule `O=c1c(O)c(-c2ccc(O)c(O)c2)oc2cc(O)cc(O)c12` [Quercetin] gave a Quercetin of 39.62 ± 0.05 µg/mL.

The values above are taken from article PMC9653751, “Chemical Composition and Antioxidant, Antimicrobial, and Anti-Inflammatory Properties of Origanum compactum Benth Essential Oils from Two Regions: In Vitro and In Vivo Evidence and In Silico Molecular Investigations” (Molecules, 2022).
